Source: ChEMBL document CHEMBL1201862, “PubChem BioAssay data set” (2004)
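Five concentrations, 48 hours, 96-well plates. GI50 is the concentration that inhibits growth by half.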 Active and inactive are the calls of the source. Cut-off read from the data, not from the text of the source: active = GI50 up to about 1.1 µM and inactive = higher.

Legend:
Experiment in all cases: NCI-60 cell line screen, 48 h
TK-10 = system: TK-10
NCI-H460 = system: NCI-H460
HOP-62 = system: HOP-62
U-251 = system: U-251
BT-549 = system: BT-549
MDA-MB-435 = system: MDA-MB-435
SR = system: SR
SF-539 = system: SF-539
KM12 = system: KM12
HCC 2998 = system: HCC 2998
A498 = system: A498
ACHN = system: ACHN
IGROV-1 = system: IGROV-1
NCI/ADR-RES = system: NCI/ADR-RES
HOP-92 = system: HOP-92
EKVX = system: EKVX
SW-620 = system: SW-620
M14 = system: M14
RPMI-8226 = system: RPMI-8226

Measured: GI50

COc1ccc(OC)c(/C=N/N=C2\C(=O)Nc3c(Cl)cc(Cl)cc32)c1
inactive: TK-10 > 100 µM | NCI-H460 63.5 µM | HOP-62 19 µM | U-251 38.7 µM | BT-549 26.1 µM | MDA-MB-435 32.7 µM | SR 25.1 µM | SF-539 38 µM | KM12 35.4 µM | HCC 2998 > 100 µM | A498 71.6 µM | ACHN 52.4 µM | IGROV-1 34.3 µM | NCI/ADR-RES 20.2 µM | HOP-92 47.3 µM | EKVX 8.67 µM | SW-620 43.4 µM | M14 68.4 µM

CCC/N=C/c1cc(Cc2ccc(O)c(/C=N/CCC)c2)ccc1O
inactive: TK-10 11.1 µM | NCI-H460 18.4 µM | HOP-62 14.1 µM | U-251 2.64 µM | BT-549 10.7 µM | MDA-MB-435 3.47 µM | SR 1.95 µM | SF-539 2.77 µM | KM12 3.95 µM | HCC 2998 14.1 µM | A498 2.37 µM | ACHN 20.7 µM | IGROV-1 4.09 µM | NCI/ADR-RES 17.2 µM | HOP-92 1.85 µM | EKVX 8.87 µM | SW-620 3.55 µM | M14 2.69 µM

C=C1[C@H](OC(C)=O)[C@H]2[C@@H](OC(C)=O)[C@@H](C)C[C@]2(C)C(=O)[C@H](C)/C=C/C(C)(C)C(=O)[C@H](OCC(C)C)[C@H]1OC(C)=O
inactive: TK-10 > 25 µM | NCI-H460 12.6 µM | HOP-62 19.5 µM | U-251 > 25 µM | BT-549 > 25 µM | MDA-MB-435 20.7 µM | SR > 25 µM | SF-539 19.6 µM | KM12 > 25 µM | HCC 2998 > 25 µM | A498 > 25 µM | ACHN > 25 µM | IGROV-1 > 25 µM | NCI/ADR-RES > 25 µM | HOP-92 > 25 µM | EKVX > 25 µM | SW-620 > 25 µM | M14 > 25 µM

COc1cc2nc3n(c2cc1OC)C(O)c1c(Cl)nc(SC)nc1S3 (stereo not drawn)
inactive: TK-10 5.46 µM | NCI-H460 3.44 µM | HOP-62 3.72 µM | U-251 3.37 µM | BT-549 2.16 µM | MDA-MB-435 4.01 µM | SR 3.68 µM | SF-539 2.4 µM | KM12 2.68 µM | HCC 2998 4.21 µM | RPMI-8226 2.16 µM | A498 6.81 µM | ACHN 3.3 µM | IGROV-1 2.6 µM | NCI/ADR-RES 3.36 µM | HOP-92 12.2 µM | EKVX 15.4 µM | SW-620 3.33 µM | M14 2.67 µM

NCCCN1CCN(CCCNc2ccc3nnn4c5ccccc5c(=O)c2c34)CC1
inactive: TK-10 24.9 µM | NCI-H460 18.4 µM | HOP-62 13.7 µM | U-251 24 µM | BT-549 5.81 µM | MDA-MB-435 21.6 µM | SR > 100 µM | SF-539 13.9 µM | HCC 2998 11.9 µM | RPMI-8226 21.8 µM | A498 18.6 µM | ACHN 12.4 µM | IGROV-1 13.5 µM | NCI/ADR-RES 55 µM | HOP-92 18.8 µM | EKVX 19.9 µM | SW-620 11 µM | M14 17.6 µM

CC[C@H](C)[C@H]1NC(=O)[C@@H](NC(=O)[C@@H](CC(C)C)N(C)C(=O)C2CCCN2C(=O)[C@H](C)O)[C@@H](C)OC(=O)[C@H](Cc2ccc(OC)cc2)N(C)C(=O)[C@@H]2CCCN2C(=O)[C@H](CCCCNC(=O)OCc2ccccc2)NC(=O)[C@H](C)C(=O)[C@H](C(C)C)OC(=O)C[C@@H]1O (stereo partly drawn)
inactive: TK-10 6.97 µM | NCI-H460 6.4 µM | HOP-62 6.65 µM | U-251 3.55 µM | BT-549 7.93 µM | MDA-MB-435 5.86 µM | SR 12.2 µM | SF-539 12.8 µM | KM12 4.73 µM | HCC 2998 2.73 µM | RPMI-8226 4.17 µM | A498 > 25 µM | ACHN 20.1 µM | IGROV-1 7.74 µM | NCI/ADR-RES > 25 µM | HOP-92 3.49 µM | EKVX 5.38 µM | SW-620 7.74 µM | M14 4.13 µM

O=C(O)CNC(=O)c1ccccc1O [SALICYLURIC ACID]
inactive: TK-10 > 100 µM | NCI-H460 > 100 µM | HOP-62 > 100 µM | U-251 > 100 µM | BT-549 > 100 µM | MDA-MB-435 > 100 µM | SR > 100 µM | SF-539 > 100 µM | KM12 > 100 µM | RPMI-8226 > 100 µM | A498 > 100 µM | ACHN > 100 µM | IGROV-1 > 100 µM | NCI/ADR-RES > 100 µM | HOP-92 > 100 µM | EKVX > 100 µM | SW-620 > 100 µM | M14 > 100 µM
